Experimental data: patent US20080200557A1, “Method for Inhibiting Lipid Peroxidation” (CARITAS ST. ELIZABETH HOSPITAL OF BOSTON, INC., priority 2004, published 2008)

Columns and labels:
[1] = system: lipid peroxidation induced by lipopolysaccharide (LPS) in mice brain tissues; experiment: LPS-induced lipid peroxidation (TBARS/MDA) in mouse brain tissues; format: biochemical; details: C57BI/6J mouse brain
[2] = system: lipid peroxidation induced by FeCl2 in mice brain tissues; experiment: FeCl2-induced lipid peroxidation (TBARS/MDA) in mouse brain tissues; format: biochemical, mice C57BI/J6; details: FeCl2 1 mM
Description: The effect of N-substituted dopamine derivatives on FeCl2-induced oxidative damage was evaluated in mice C57BI/J6 brain tissues.
Brain tissues from C57BI/J6 […] were homogenized in 20 mM pH 7.4 Tris buffer. The homogenates were then incubated (1 hr) in solvent alone (control) or in solvent+FeCl2, N-acetyldopamine+FeCl2, N-methyldopamine (deoxyepinephrine)+FeCl2, 3-methoxyldopamine+FeCl2, and 4-methoxydopamine (3-hydroxy-4-methoxy phenethylamine HCl)+FeCl2. TBARS were added, and homogenates were incubated for 20 min. in a boiling water bath. After cooling, the absorbance was measured spectrophotometrically at 532 nm. TBARS concentrations were derived from a standard curve of MDA (Oxis International, Portland, Oreg.). Protein was determined by Lowry method (Sigma Chem. Co., St. Louis, Mo.). Results are expressed as mean +S.D. (n=6). Data was treated by one-way ANOVA and Student's t-test

[3] = system: septic shock; details: patients suffering from septic shock; cited from earlier work
[4] = system: lipid peroxidation induced by lipopolysaccharide (LPS) in rat brain tissues; experiment: LPS-induced lipid peroxidation (TBARS/MDA) in rat brain homogenates; format: biochemical, Fisher 344N male rats; details: rat brain homogenate, LPS 400 μg/ml
Description: N-acetyldopamine, melatonin, 2-thiobarbituric acid, and LPS (Escherichia coli 0127:B8) were purchased from Sigma Chemical Co. (St. Louis, Mo.). The formation of thiobarbituric acid reactive substances (TBARS) was used as index of induced oxidative damage to lipid membranes. Lipid peroxidation was induced with LPS (400 μg/ml).
Brain tissues from Fisher 344N male rats were homogenized in 20 mM pH 7.4 Tris buffer. The homogenates were then incubated (1 hr) in solvent alone (control) or in solvent+LPS (400 μg/ml), N-acetyldopamine+LPS, NAS+LPS, melatonin+LPS, and N-acetyldopamine+NAS+LPS (for concentrations of N-acetyldopamine, NAS and melatonin, see Results). TBARS were added, and homogenates were incubated for 20 min. in a boiling water bath. After cooling, the absorbance was measured spectrophotometrically at 532 nm. TBARS concentrations were derived from a standard curve of MDA (Oxis International, Portland, Oreg.). Protein was determined by Lowry method (Sigma Chem. Co., St. Louis, Mo.). Results are expressed as mean+S.D. (n=6). Data was treated by one-way ANOVA and Student's t-test.

[5] = system: toxic effect of LPS; details: laboratory animals; cited from earlier work
[6] = system: LPS lethal effect; details: mice; cited from earlier work
[7] = system: LPS-induced hypotensive shock; details: rats; cited from earlier work

## COc1cc(CCN)ccc1O [3-methoxydopamine, 4-hydroxyl-3-methoxy phenethylamine]
[1]; FIGS. 6-7
  effect on LPS-induced lipid peroxidation (MDA formation), in words: inhibited LPS-induced formation of MDA in C57BI/6J mouse brain in a dose-dependent manner
[1]; at 200μ, FIG. 6
  inhibition of LPS-induced formation of MDA: 50%

## CNCCc1ccc(O)c(O)c1 [N-methyldopamine, N-methyldopamine (deoxyepinephrine)]
[2]; FIG. 10
  concentration from which inhibition of FeCl2-induced formation of MDA starts: 25 µM
  concentration reaching complete inhibition of FeCl2-induced formation of MDA: 200 µM
[2]; FIGS. 8-12
  effect on FeCl2-induced formation of MDA, in words: most prominent effect

## COc1ccc2[nH]cc(CCNC(C)=O)c2c1 [Melatonin, melatonin]
[3]
  effect on lethality: prevent lethality
[4]; FIG. 3
  concentration reaching statistically significant inhibition of LPS-induced lipid peroxidation: 800 µM
[5]
  effect on toxic effect of LPS: counteract the toxic effect of LPS

## CC(=O)NCCc1ccc(O)c(O)c1 [N-acetyldopamine]
[4]; 1 hr incubation, FIG. 1
  concentration from which inhibition of LPS-induced formation of MDA starts: 50 µM
  concentration reaching complete inhibition of LPS-induced formation of MDA: 200 µM
[4]; FIGS. 1-2
  effect on LPS-induced lipid peroxidation (MDA formation), in words: inhibited LPS-induced formation of MDA in a dose-dependent manner

## CC(=O)NCCc1c[nH]c2ccc(O)cc12 [NAS, N-acetylserotonin]
[6]
  protection against LPS lethal effect: protects
[7]
  protection against LPS-induced hypotensive shock: protects rats against LPS-induced hypotensive shock
